# Experimental data as given in ChEMBL document CHEMBL3880422, “C-terminal modified oxamyl dipeptides as inhibitors of the ICE/ced-3 family of cysteine proteases” (2007).
# Where a SMILES comes first, the peptide text is derived from it. The star is where a group is joined. Cbz = O=C(OCc1ccccc1)*; CH2F = FC*
# Legend:
# Caspase-1 (Mus musculus) = target: T1, Caspase-1 (Mus musculus) (UniProt P29452); experiment: Inhibition of mouse recombinant ICE assessed as ratio of irreversible rate constant K3 to dissociation constant of the reversible binding step Ki pre-incubated for 60 mins with Acetyl-Tyr-Val-Ala-Asp-amino-4-methylcoumarin substrate followed by enzyme addition by fluorescence based assay
# T1 sequence (whole entry): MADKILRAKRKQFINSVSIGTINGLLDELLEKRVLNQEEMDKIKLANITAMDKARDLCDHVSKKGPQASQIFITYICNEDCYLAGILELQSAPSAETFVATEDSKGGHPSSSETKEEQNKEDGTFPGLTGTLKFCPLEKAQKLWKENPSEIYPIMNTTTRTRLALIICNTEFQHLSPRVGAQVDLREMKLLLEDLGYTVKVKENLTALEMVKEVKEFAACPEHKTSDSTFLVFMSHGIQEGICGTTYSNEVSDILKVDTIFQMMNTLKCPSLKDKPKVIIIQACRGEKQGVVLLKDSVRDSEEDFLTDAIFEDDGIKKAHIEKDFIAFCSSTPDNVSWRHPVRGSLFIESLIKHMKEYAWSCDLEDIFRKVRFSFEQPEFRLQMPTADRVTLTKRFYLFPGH
# Caspase-6 (Homo sapiens) = target: T2, Caspase-6 (Homo sapiens) (UniProt P55212); experiment: (§1) Inhibition of recombinant MCH2 (unknown origin) assessed as ratio of irreversible rate constant K3 to dissociation constant of the reversible binding step Ki pre-incubated for 60 mins with Acetyl-Tyr-Val-Ala-Asp-amino-4-methylcoumarin substrate followed by enzyme addition by fluorescence based assay
# T2 sequence (whole entry): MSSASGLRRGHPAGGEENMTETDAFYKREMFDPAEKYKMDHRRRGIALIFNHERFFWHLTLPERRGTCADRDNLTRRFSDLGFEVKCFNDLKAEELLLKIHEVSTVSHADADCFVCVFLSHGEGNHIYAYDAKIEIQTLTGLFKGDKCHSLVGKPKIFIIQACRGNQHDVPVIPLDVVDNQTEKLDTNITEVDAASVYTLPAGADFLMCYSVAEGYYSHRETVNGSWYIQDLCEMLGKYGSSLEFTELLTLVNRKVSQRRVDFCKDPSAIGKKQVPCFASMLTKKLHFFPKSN
# Caspase-8 (Homo sapiens) = Caspase-8 (Homo sapiens) (UniProt Q14790); experiment: Inhibition of recombinant MCH5 (unknown origin) assessed as ratio of irreversible rate constant K3 to dissociation constant of the reversible binding step Ki pre-incubated for 60 mins with Acetyl-Tyr-Val-Ala-Asp-amino-4-methylcoumarin substrate followed by enzyme addition by fluorescence based assay
# Sequence of Caspase-8 (Homo sapiens) (Q14790 217-374 limits assumed): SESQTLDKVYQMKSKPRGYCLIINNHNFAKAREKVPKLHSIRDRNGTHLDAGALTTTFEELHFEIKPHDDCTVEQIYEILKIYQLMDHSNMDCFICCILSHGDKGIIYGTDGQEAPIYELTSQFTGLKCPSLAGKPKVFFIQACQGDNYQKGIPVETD
# Sequence of Caspase-8 (Homo sapiens) (Q14790 385-479 limits assumed): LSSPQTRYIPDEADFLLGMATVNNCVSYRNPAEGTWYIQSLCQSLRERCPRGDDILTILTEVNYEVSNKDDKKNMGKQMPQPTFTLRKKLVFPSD
# Caspase-3 (Homo sapiens) = target: T3, Caspase-3 (Homo sapiens) (UniProt P42574); experiment: as §1, with “CPP32” for “MCH2”
# T3 sequence (whole entry): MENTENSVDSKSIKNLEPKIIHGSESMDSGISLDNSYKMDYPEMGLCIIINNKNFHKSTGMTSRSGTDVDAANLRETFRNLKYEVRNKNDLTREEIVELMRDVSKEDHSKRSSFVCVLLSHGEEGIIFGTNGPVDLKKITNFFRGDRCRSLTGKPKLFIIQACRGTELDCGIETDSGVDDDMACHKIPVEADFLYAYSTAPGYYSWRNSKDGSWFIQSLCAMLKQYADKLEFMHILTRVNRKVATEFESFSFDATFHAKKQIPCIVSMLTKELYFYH
Ratio (Caspase-1 (Mus musculus)),Ratio (Caspase-6 (Homo sapiens)),Ratio (Caspase-8 (Homo sapiens)),Ratio (Caspase-3 (Homo sapiens)),Structure (SMILES)
1.84e+06 M⁻¹ s⁻¹,69100 M⁻¹ s⁻¹,625000 M⁻¹ s⁻¹,286000 M⁻¹ s⁻¹,CC(C)[C@H](NC(=O)C(=O)Nc1cccc2ccccc12)C(=O)N[C@@H](CC(=O)O)C(=O)COc1ccc(O)cc1
1.54e+06 M⁻¹ s⁻¹,161000 M⁻¹ s⁻¹,234000 M⁻¹ s⁻¹,96300 M⁻¹ s⁻¹,CC(C)[C@H](NC(=O)C(=O)Nc1ccccc1Cl)C(=O)N[C@@H](CC(=O)O)C(=O)COc1c(F)c(F)cc(F)c1F
43300 to 537000 M⁻¹ s⁻¹,6960 to 191000 M⁻¹ s⁻¹,30200 to 39100 M⁻¹ s⁻¹,62900 to 142000 M⁻¹ s⁻¹,C[C@H](NC(=O)C(=O)Nc1ccccc1C(C)(C)C)C(=O)N[C@@H](CC(=O)O)C(=O)COC(=O)c1c(Cl)cccc1Cl
172000 M⁻¹ s⁻¹,129000 M⁻¹ s⁻¹,155000 M⁻¹ s⁻¹,68900 M⁻¹ s⁻¹,C[C@H](NC(=O)C(=O)Nc1ccccc1F)C(=O)N[C@@H](CC(=O)O)C(=O)COC(=O)c1c(Cl)cccc1Cl
59100 M⁻¹ s⁻¹,244000 M⁻¹ s⁻¹,203000 M⁻¹ s⁻¹,600000 M⁻¹ s⁻¹,C[C@H](NC(=O)C(=O)NCc1ccccc1)C(=O)N[C@@H](CC(=O)O)C(=O)COC(=O)c1c(Cl)cccc1Cl
1.05e+06 M⁻¹ s⁻¹,234000 M⁻¹ s⁻¹,,,CC(C)[C@H](NC(=O)C(=O)Nc1cccc2ccccc12)C(=O)N[C@@H](CC(=O)O)C(=O)COC(=O)c1c(Cl)cccc1Cl
879000 M⁻¹ s⁻¹,37400 M⁻¹ s⁻¹,,,CC(C)[C@H](NC(=O)C(=O)Nc1cccc2ccccc12)C(=O)N[C@@H](CC(=O)O)C(=O)COc1c(F)cc(F)cc1F

# More lines, now with the values behind:
Structure (SMILES),Ratio (Caspase-1 (Mus musculus)),Ratio (Caspase-6 (Homo sapiens)),Ratio (Caspase-8 (Homo sapiens)),Ratio (Caspase-3 (Homo sapiens))
CC(C)[C@H](NC(=O)C(=O)Nc1ccc(F)cc1)C(=O)N[C@@H](CC(=O)O)C(=O)COc1c(F)c(F)cc(F)c1F,906000 M⁻¹ s⁻¹,121000 M⁻¹ s⁻¹,338000 M⁻¹ s⁻¹,36300 M⁻¹ s⁻¹
CC(C)[C@H](NC(=O)C(=O)Nc1ccccc1-c1ccccc1)C(=O)N[C@@H](CC(=O)O)C(=O)COc1c(F)c(F)cc(F)c1F,127000 M⁻¹ s⁻¹,31700 M⁻¹ s⁻¹,65300 M⁻¹ s⁻¹,25400 M⁻¹ s⁻¹
C[C@H](NC(=O)C(=O)Nc1cccc2c1CCCC2)C(=O)N[C@@H](CC(=O)O)C(=O)COc1c(F)c(F)cc(F)c1F,22000 M⁻¹ s⁻¹,64100 M⁻¹ s⁻¹,46200 M⁻¹ s⁻¹,118000 M⁻¹ s⁻¹
C[C@H](NC(=O)C(=O)NC1CCCCC1)C(=O)N[C@@H](CC(=O)O)C(=O)COP(=O)(c1ccccc1)c1ccccc1,2.03e+06 M⁻¹ s⁻¹,97500 M⁻¹ s⁻¹,1.79e+06 M⁻¹ s⁻¹,137000 M⁻¹ s⁻¹
C[C@H](NC(=O)C(=O)Nc1cc(C(C)(C)C)ccc1C(C)(C)C)C(=O)N[C@@H](CC(=O)O)C(=O)COP(=O)(c1ccccc1)c1ccccc1,211000 M⁻¹ s⁻¹,308000 M⁻¹ s⁻¹,1.34e+06 M⁻¹ s⁻¹,104000 M⁻¹ s⁻¹
CC(C)[C@H](NC(=O)C(=O)Nc1ccccc1I)C(=O)N[C@@H](CC(=O)O)C(=O)COc1c(F)c(F)cc(F)c1F,1.26e+06 M⁻¹ s⁻¹,137000 M⁻¹ s⁻¹,1.03e+06 M⁻¹ s⁻¹,42300 M⁻¹ s⁻¹
CC(C)[C@H](NC(=O)C(=O)Nc1cccc2ccccc12)C(=O)N[C@@H](CC(=O)O)C(=O)COc1cccc2ccccc12,254000 M⁻¹ s⁻¹,83700 M⁻¹ s⁻¹,177000 M⁻¹ s⁻¹,180000 M⁻¹ s⁻¹
C[C@H](NC(=O)C(=O)Nc1ccccc1C(C)(C)C)C(=O)N[C@@H](CC(=O)O)C(=O)COP(=O)(c1ccccc1)c1ccccc1,159000 to 625000 M⁻¹ s⁻¹,275000 to 484000 M⁻¹ s⁻¹,282000 to 589000 M⁻¹ s⁻¹,327000 to 395000 M⁻¹ s⁻¹
CC(C)[C@H](NC(=O)OCc1ccccc1)C(=O)N[C@@H](C)C(=O)N[C@@H](CC(=O)O)C(=O)CF (Cbz-Val-Ala-Asp-CH2F),214000 M⁻¹ s⁻¹,2950 M⁻¹ s⁻¹,83300 M⁻¹ s⁻¹,12200 M⁻¹ s⁻¹
CC(C)[C@H](NC(=O)C(=O)Nc1cccc2ccccc12)C(=O)N[C@@H](CC(=O)O)C(=O)COc1c(-c2ccccc2)oc2ccccc2c1=O,82100 M⁻¹ s⁻¹,0 M⁻¹ s⁻¹,0 M⁻¹ s⁻¹,43600 M⁻¹ s⁻¹
CC(C)[C@H](NC(=O)C(=O)Nc1cnccn1)C(=O)N[C@@H](CC(=O)O)C(=O)COc1c(F)c(F)cc(F)c1F,2.57e+06 M⁻¹ s⁻¹,175000 M⁻¹ s⁻¹,1.83e+06 M⁻¹ s⁻¹,
